Assays:
MCF-7 cells [1] = assay: FACS analysis of cell cycle phases in TPA-treated MCF-7 cells; type: cell-based, human
Experimental: However, without any further addition of TPA, the number of cells in the S phase increases again so as to return to the initial state at 72 h of treatment. G2/M phase: The number of cells in the G2/M phase increases from the beginning of the treatment, with a maximum observed at 12 hours (FIG. 15B). G0/G1 phase: The number of cells in the G0/G1 phase is at a minimum at 6 hours and at a maximum at 24 hours (FIG. 15C).
A maximum of cells in the S phase are therefore observed in the early periods of the kinetics (0 h to 6 h), a maximum of cells in the G2/M phase is observed at 12 h and, finally, a maximum of cells in the G0/G1 phase is observed at 24 h. Finally, without any further addition of TPA, the cells return to the S phase at 72 h.

PKC∈ = PKC∈ expression in MCF-7 cells (Western blotting, immunofluorescence); type: cell-based, human; settings: TPA 25 nM
Experimental: Western blotting study: Given that the protein sequence of LIV21 has putative PKC phosphorylation sites, including two specific for PKC∈, the inventor tested the variation in the expression of this PKC as a function of the duration of TPA treatment. […] The expression of PKCzeta (PKCζ) is used as an internal control since it is not sensitive to TPA.
The protein extracts are heated at 80° C. for 5 minutes in a Laemmli buffer (pH 7.4, 0.06 M Tris, 3% SDS, 10% glycerol, 1 nM PMSF, β-mercaptoethanol). The migration is carried out by SDS-PAGE (sodium dodecyl sulfate-polyacrylamide gel electrophoresis). 10 to 20 μg of proteins migrate in a 12% polyacrylamide gel for 1 h under denaturing conditions (migration buffer: 25 mM Tris base, 192 mM glycine, 1% SDS, pH 8.3). The proteins are then transferred onto a nitrocellulose membrane (Schleicher & Schuell) for one hour by liquid transfer, in a transfer membrane (25 mM Tris, 192 mM glycine, 20% methanol, pH 8.3). The membranes, saturated in PBS-0.1% Tween-0.1% Triton X100-5% skimmed milk for one hour, are brought into contact with the primary antibody diluted in PBS-0.1% Tween-0.1% Triton X100-1% milk at ambient temperature with gentle agitation for one hour to two hours. After washing, the peroxidase-coupled secondary antibody is incubated with the membranes for 1 h. […]

MCF-7 line = settings: literature description; cited from earlier work
MCF-7 cells [2] = assay: Cell growth monitoring (counting) and morphology of MCF-7 cultures with or without TPA; type: cell-based, human; settings: TPA 25 nM
Experimental: It has been described in the literature that TPA induces the arrest of proliferation and the differentiation of tumor cells of the MCF-7 line. In order to validate the culture conditions, the cell growth was monitored (by counting) beforehand over three days of culture in the presence or absence of TPA at a concentration of 25 nM (FIG. 14).
However, in the period of time over which the cells were studied, the secretory phenotype (appearance of granules and of secretory canaliculi) was not observed.

LIV21 = assay: Nuclear translocation of LIV21 in MCF-7 cells (Western blotting of extracts/fractions, immunocytochemistry); type: cell-based, human
Experimental: The results obtained by flow cytometry led the inventor to study, in parallel, the expression of LIV21 in nuclear extracts prepared after 12 h, 24 h, 48 h and 72 h of TPA treatment (FIG. 16A). […] It lasts until the reinitiation of the cell cycle observed at 72 h.
However, it is interesting to note that the expression of LIV21 already begins from 1 h of treatment in certain cells, since they are not synchronous.
The effect of the selective inhibition of the activity of PKC∈ on the nuclear translocation of LIV21 was studied by immunocytochemistry. These experiments were carried out on nontreated cultures or cultures treated for 12 h with TPA at 25 nM or with the peptide at two different concentrations, 1 and 2 μM (FIG. 20).
The protein extracts are heated at 80° C. for 5 minutes in a Laemmli buffer (pH 7.4, 0.06 M Tris, 3% SDS, 10% glycerol, 1 nM PMSF, β-mercaptoethanol). The migration is carried out by SDS-PAGE (sodium dodecyl sulfate-polyacrylamide gel electrophoresis). 10 to 20 μg of proteins migrate in a 12% polyacrylamide gel for 1 h under denaturing conditions (migration buffer: 25 mM Tris base, 192 mM glycine, 1% SDS, pH 8.3). The proteins are then transferred onto a nitrocellulose membrane (Schleicher & Schuell) for one hour by liquid transfer, in a transfer membrane (25 mM Tris, 192 mM glycine, 20% methanol, pH 8.3). The membranes, saturated in PBS-0.1% Tween-0.1% Triton X100-5% skimmed milk for one hour, are brought into contact with the primary antibody diluted in PBS-0.1% Tween-0.1% Triton X100-1% milk at ambient temperature with gentle agitation for one hour to two hours. After washing, the peroxidase-coupled secondary antibody is incubated with the membranes for 1 h. Revelation is carried out by means of a chemiluminescence reaction using the ECL kit according to the supplier's protocol (Amersham).

Compound | time of optimal reduction of the number of cells in the S phase (MCF-7 cells [1]; TPA 25 nM, single addition) [h] | time of maximum number of cells in the G0/G1 phase (MCF-7 cells [1]; TPA treatment) [h] | time of maximum number of cells in the G2/M phase (MCF-7 cells [1]; TPA treatment) [h] | time of minimum number of cells in the G0/G1 phase (MCF-7 cells [1]; TPA treatment) [h] | time at which cells reinitiate the cell cycle (MCF-7 cells [1]; after single addition of TPA) [h] | PKC∈ localization (immunofluorescence) (PKC∈; 12 h) | PKC∈ expression (Western blotting, total extracts) (PKC∈; as a function of duration of treatment) | proliferation of cells of human mammary tumor lines such as MCF-7 (MCF-7 line) | cell morphology / differentiation (MCF-7 cells [2]) | number of cells in control cultures relative to treated cultures (MCF-7 cells [2]; after 3 days of treatment) | cell proliferation (cell counts) (MCF-7 cells [2]; three days of culture) | colocalization of PML and LIV21 (double labeling) (LIV21; 24 h of TPA treatment (25 nM)) | time of maximum nuclear translocation of LIV21 (immunocytochemistry) (LIV21; TPA 25 nM) [h] | anti-LIV21 immunoreactivity in nuclear extracts (Western blot) (LIV21; TPA 25 nM, 12 h, 24 h, 48 h and 72 h) | nuclear translocation of LIV21 (immunocytochemistry) (LIV21; peptide 1 μM, 12 h) | nuclear translocation of LIV21 (immunocytochemistry) (LIV21; peptide 2 μM, 12 h, compared with TPA 25 nM) | nuclear translocation of LIV21 (immunocytochemistry) (LIV21; peptide 2 μM, 12 h, compared with TPA 25 nM, listed as PKCε-inhibiting peptide) | LIV21 expression profile in cytoplasmic and nuclear fractions (cell fractionation, Western blot) (LIV21; peptide 2 μM, 12 h, compared with TPA-treated cultures)
CCCCCCCCCCCCCC(=O)O[C@@H]1[C@@H](C)[C@@]2(O)[C@@H](C=C(CO)C[C@]3(O)C(=O)C(C)=C[C@@H]23)[C@H]2C(C)(C)[C@]12OC(C)=O [TPA] | 12 | 24 | 12 | 6 | 72 | disappears from the cytoplasm | decreases from 30 min | drastically inhibits the proliferation | rapidly acquire characteristics of differentiated mammary gland cells | twice as many cells | clearly inhibits proliferation | colocalized in the nuclei | 12 | maximum anti-LIV21 immunoreactivity was observed from 12 h, was maintained up to 48 h |  |  |  | 
EAVSLKPT (listed as Homo sapiens) [PKC∈-inhibiting peptide] |  |  |  |  |  |  |  |  |  |  |  |  |  |  | absence of nuclear translocation of LIV21 | effect identical to that of TPA | same effectiveness as | same LIV21 expression profile

Source: patent US8039439B2, “Cellular cycle anomalies for targeting oncology and neurodegeneration” (priority 2005, dated 2011)
